A word on the EC50: it is the concentration giving half of the maximal effect. A lower EC50 goes with a more potent agent.

The record followed here is PMC7925099, “Identification of an Antiretroviral Small Molecule That Appears To Be a Host-Targeting Inhibitor of HIV-1 Assembly” (Journal of Virology, 2021).

One data set relates to HIV-1 NL4-3 RLuc. In words: MT-2 spreading infection assay (inhibition of HIV-1 replication). The settings on record: for SI (CC50/EC50): MT-2 cells, from average values; for EC50: Human immunodeficiency virus 1, NL43, MT2.
A short description of a further data set: in vitro. The settings on record: human, CC50 (μM).

Description for HIV-1 NL4-3 RLuc: Inhibition of HIV-1 viral replication was assayed in a spreading infection using MT-2 cells and NL4-3 RLuc reporter virus. For dose-response curves, compounds were initially diluted with DMSO to 100-fold the starting concentration in a 96-well plate and subjected to a series of 3-fold dilutions in DMSO for a total of eight or nine dilutions. If a single compound concentration was tested, the compound was diluted to 100-fold the desired concentration in DMSO. Compounds were then diluted 50-fold with infection media prepared by diluting NL4-3 RLuc virus stock to 400 IU/100 μl with complete RPMI. Then, 100 μl of 50-fold-diluted compound was transferred to 20,000 MT-2 cells that were preseeded in 96-well plates in 100 μl of complete RPMI for a final volume of 200 μl, followed by incubation at 37°C for 96 h. The final MOI in infected plates was 0.02, and the final DMSO concentration in all wells was 1%. All assays were run with three replicates. For each replicate, one well received DMSO only, and one well received medium only for normalization and background correction. […] Plates were read on a luminescence plate reader (Synergy H1; BioTek Instruments, Inc.).
(§1) EC50 and CC50 values were determined in Excel using four-parameter logistic regression analysis of dose-response data generated from the viral inhibition or cytotoxicity assays, respectively. […] Average EC50 and CC50 values were calculated using the geometric mean and average values were reported with the geometric standard deviation (GSD).
Description for MT-2 cells: (§2) For each viral inhibition assay, a cytotoxicity assay was performed in parallel on uninfected cells by adding 1/10 volume of alamarBlue (Thermo Fisher, Waltham, MA; DAL1199) to the plates, followed by thorough mixing. AlamarBlue-treated plates were incubated for 2 to 3 h at 37°C (the timing was optimized for the linear signal), mixed well, and read using a fluorescence plate reader with 560 nm and 590 nm as the excitation and emission settings, respectively (Synergy H1; BioTek Instruments, Inc.).
as §1
Description for in vitro: as §2, §1

For the molecule `COc1ccc(/C=C/C2NCCc3cc(OCc4ccccc4)c(OC)cc32)c(C)c1` (centres unmarked) [PAV-218], the “CC50 (μM)” value in the data set on MT-2 cells is 9.7 ×/÷ 1.2 μM. In the data set on HIV-1 NL4-3 RLuc, the “SI (CC50/EC50)” value turned out to be 66.

In the data set “in vitro”, `COc1ccc(/C=C/C2NCCc3cc(OCc4ccccc4)c(OC)cc32)cc1OCc1ccccc1` (centres unmarked) [PAV-220] had a CC50 of 3.8 µM. In the data set with HIV-1 NL4-3 RLuc, it took 163 nM to reach a half-maximal effect (EC50) and the “SI (CC50/EC50)” value was found to be 23.

`COc1cc2c(cc1OCc1ccccc1)CCNC2/C=C/c1ccccc1C` (centres unmarked) [PAV-245] came in with a CC50 in “in vitro” of 3.6 µM. In the data set on HIV-1 NL4-3 RLuc, the EC50 is 755 nM and the “SI (CC50/EC50)” value was found to be 4.8.

Regarding `COc1cc2c(cc1OCc1ccccc1)CCNC2/C=C/c1ccccc1` (centres unmarked) [PAV-492], the CC50 in “in vitro” is greater than 10 µM. Further, in the data set with HIV-1 NL4-3 RLuc, a half-maximal effect (EC50) was put at 1540 nM and the “SI (CC50/EC50)” value was greater than 6.
